# Test results reported in the NIST ThermoML archive (doi:10.1016/j.jct.2012.11.032).
# ± gives the expanded uncertainty stated by the source.
# Assay: xn = mol fraction of the nth substance listed
# Settings: 101 kPa, Liquid; for mass density: Vibrating tube method; for speed of sound: Sing-around technique in a fixed-path interferometer
compound,measurement,setting,value
CCCCCCCC[n+]1ccn(C)c1.[Cl-] [1-methyl-3-octylimidazolium chloride] + O,mass density,"288 K, x1 = 0.003111",1000.35 ± 0.1 kg/m3
same,mass density,"288 K, x1 = 0.003716",1000.58 ± 0.1 kg/m3
same,mass density,"288 K, x1 = 0.003899",1000.64 ± 0.1 kg/m3
same,mass density,"288 K, x1 = 0.004079",1000.72 ± 0.1 kg/m3
same,mass density,"288 K, x1 = 0.004181",1000.75 ± 0.1 kg/m3
same,mass density,"288 K, x1 = 0.004462",1000.85 ± 0.1 kg/m3
same,mass density,"288 K, x1 = 0.004601",1000.9 ± 0.1 kg/m3
same,mass density,"288 K, x1 = 0.004981",1001.04 ± 0.1 kg/m3
same,mass density,"288 K, x1 = 0.005198",1001.12 ± 0.1 kg/m3
same,mass density,"288 K, x1 = 0.005607",1001.27 ± 0.1 kg/m3
same,mass density,"288 K, x1 = 0.005782",1001.32 ± 0.1 kg/m3
same,speed of sound,"293 K, x1 = 0.000276",1485.5 ± 1.2 m/s
same,speed of sound,"293 K, x1 = 0.000495",1487.7 ± 1.2 m/s
same,speed of sound,"293 K, x1 = 0.000781",1490.3 ± 1.2 m/s
same,speed of sound,"293 K, x1 = 0.00102",1492.6 ± 1.2 m/s
same,speed of sound,"293 K, x1 = 0.0013",1495.3 ± 1.2 m/s
same,speed of sound,"293 K, x1 = 0.001503",1497.2 ± 1.2 m/s
same,speed of sound,"293 K, x1 = 0.001892",1500.8 ± 1.2 m/s
same,speed of sound,"293 K, x1 = 0.002073",1502.5 ± 1.2 m/s
same,speed of sound,"293 K, x1 = 0.002376",1505.2 ± 1.2 m/s
same,speed of sound,"293 K, x1 = 0.00261",1507.3 ± 1.2 m/s
same,speed of sound,"293 K, x1 = 0.002774",1508.7 ± 1.2 m/s
same,speed of sound,"293 K, x1 = 0.003111",1511.6 ± 1.2 m/s
same,speed of sound,"293 K, x1 = 0.003716",1516.5 ± 1.2 m/s
same,speed of sound,"293 K, x1 = 0.003899",1517.8 ± 1.2 m/s
same,speed of sound,"293 K, x1 = 0.004079",1519.3 ± 1.2 m/s
same,speed of sound,"293 K, x1 = 0.004181",1520.1 ± 1.2 m/s
same,speed of sound,"293 K, x1 = 0.004462",1522.3 ± 1.2 m/s
same,speed of sound,"293 K, x1 = 0.004601",1523.3 ± 1.2 m/s
same,speed of sound,"293 K, x1 = 0.004981",1525.9 ± 1.2 m/s
same,speed of sound,"293 K, x1 = 0.005198",1527.2 ± 1.2 m/s
same,speed of sound,"293 K, x1 = 0.005607",1529.9 ± 1.2 m/s
same,speed of sound,"293 K, x1 = 0.005782",1530.9 ± 1.2 m/s
same,mass density,"293 K, x1 = 0.000276",998.326 ± 0.1 kg/m3
same,mass density,"293 K, x1 = 0.000495",998.392 ± 0.1 kg/m3
same,mass density,"293 K, x1 = 0.000781",998.497 ± 0.1 kg/m3
same,mass density,"293 K, x1 = 0.00102",998.584 ± 0.1 kg/m3
same,mass density,"293 K, x1 = 0.0013",998.69 ± 0.1 kg/m3
same,mass density,"293 K, x1 = 0.001503",998.751 ± 0.1 kg/m3
same,mass density,"293 K, x1 = 0.001892",998.879 ± 0.1 kg/m3
same,mass density,"293 K, x1 = 0.002073",998.946 ± 0.1 kg/m3
same,mass density,"293 K, x1 = 0.002376",999.051 ± 0.1 kg/m3
same,mass density,"293 K, x1 = 0.00261",999.124 ± 0.1 kg/m3
same,mass density,"293 K, x1 = 0.002774",999.173 ± 0.1 kg/m3
same,mass density,"293 K, x1 = 0.003111",999.291 ± 0.1 kg/m3
same,mass density,"293 K, x1 = 0.003716",999.491 ± 0.1 kg/m3
same,mass density,"293 K, x1 = 0.003899",999.54 ± 0.1 kg/m3
same,mass density,"293 K, x1 = 0.004079",999.608 ± 0.1 kg/m3
same,mass density,"293 K, x1 = 0.004181",999.636 ± 0.1 kg/m3
same,mass density,"293 K, x1 = 0.004462",999.721 ± 0.1 kg/m3
same,mass density,"293 K, x1 = 0.004601",999.764 ± 0.1 kg/m3
same,mass density,"293 K, x1 = 0.004981",999.873 ± 0.1 kg/m3
same,mass density,"293 K, x1 = 0.005198",999.935 ± 0.1 kg/m3
same,mass density,"293 K, x1 = 0.005607",1000.06 ± 0.1 kg/m3
same,mass density,"293 K, x1 = 0.005782",1000.1 ± 0.1 kg/m3
same,speed of sound,"298 K, x1 = 0.000276",1499.5 ± 1.2 m/s
same,speed of sound,"298 K, x1 = 0.000495",1501.5 ± 1.2 m/s
same,speed of sound,"298 K, x1 = 0.000781",1503.9 ± 1.2 m/s
same,speed of sound,"298 K, x1 = 0.00102",1506.1 ± 1.2 m/s
same,speed of sound,"298 K, x1 = 0.0013",1508.5 ± 1.2 m/s
same,speed of sound,"298 K, x1 = 0.001503",1510.3 ± 1.2 m/s
same,speed of sound,"298 K, x1 = 0.001892",1513.6 ± 1.2 m/s
same,speed of sound,"298 K, x1 = 0.002073",1515.2 ± 1.2 m/s
same,speed of sound,"298 K, x1 = 0.002376",1517.6 ± 1.2 m/s
same,speed of sound,"298 K, x1 = 0.00261",1519.6 ± 1.2 m/s
same,speed of sound,"298 K, x1 = 0.002774",1520.8 ± 1.2 m/s
same,speed of sound,"298 K, x1 = 0.003111",1523.5 ± 1.2 m/s
same,speed of sound,"298 K, x1 = 0.003716",1527.9 ± 1.2 m/s
same,speed of sound,"298 K, x1 = 0.003899",1529.1 ± 1.2 m/s
same,speed of sound,"298 K, x1 = 0.004079",1530.5 ± 1.2 m/s
same,speed of sound,"298 K, x1 = 0.004181",1531.2 ± 1.2 m/s
same,speed of sound,"298 K, x1 = 0.004462",1533.1 ± 1.2 m/s
same,speed of sound,"298 K, x1 = 0.004601",1534 ± 1.2 m/s
same,speed of sound,"298 K, x1 = 0.004981",1536.3 ± 1.2 m/s
same,speed of sound,"298 K, x1 = 0.005198",1537.5 ± 1.2 m/s
same,speed of sound,"298 K, x1 = 0.005607",1539.8 ± 1.2 m/s
same,speed of sound,"298 K, x1 = 0.005782",1540.7 ± 1.2 m/s
